# From patent publication US20240415914A1, “Water Dispersible Cannabinoid Compositions” (priority 2021, published 2024)
# Where two headings read alike, the source gives them in different places.
# Columns and labels:
# [1] = Stability of cannabinoid and Vitamin E components of Beverage 2 (AB Red) stored at 8° C. and 21-25° C., LCMSMS over 570 days
# Description: The LCMSMS was calibrated for 0-50 ng/ml cannabinoids with the same resin material used in the preparation of the concentrates. At each time period, 100 μml of beverage was diluted with 10 ml of methanol and injected into the LCMSMS for analysis.
# [2] = format: physicochemical; settings: stored at room temperature (21-25° C.)
# Description: At each time period, 0.05 g of powder was dissolved in 10 ml-15 of ethanol, diluted to fall within the analytical range, and injected into the LCMSMS for analysis.
structure (smiles),measurement,setting,value
"C=C(C)[C@@H]1CCC(C)=C[C@H]1c1c(O)cc(CCC)cc1O [CBDV, cannabidivarin]",Stability of Cannabinoids in AB Red,"[1]; 8° C., 0 days",0.200 µg/mL
same,Stability of Cannabinoids in AB Red,"[1]; 8° C., 1 days",0.194 µg/mL
same,Stability of Cannabinoids in AB Red,"[1]; 8° C., 2 days",0.197 µg/mL
same,Stability of Cannabinoids in AB Red,"[1]; 8° C., 3 days",0.199 µg/mL
same,Stability of Cannabinoids in AB Red,"[1]; 8° C., 5 days",0.198 µg/mL
same,Stability of Cannabinoids in AB Red,"[1]; 8° C., 8 days",0.198 µg/mL
same,Stability of Cannabinoids in AB Red,"[1]; 8° C., 9 days",0.201 µg/mL
same,Stability of Cannabinoids in AB Red,"[1]; 8° C., 10 days",0.194 µg/mL
same,Stability of Cannabinoids in AB Red,"[1]; 8° C., 11 days",0.195 µg/mL
same,Stability of Cannabinoids in AB Red,"[1]; 8° C., 12 days",0.198 µg/mL
same,Stability of Cannabinoids in AB Red,"[1]; 8° C., 15 days",0.194 µg/mL
same,Stability of Cannabinoids in AB Red,"[1]; 8° C., 16 days",0.195 µg/mL
same,Stability of Cannabinoids in AB Red,"[1]; 8° C., 17 days",0.195 µg/mL
same,Stability of Cannabinoids in AB Red,"[1]; 8° C., 18 days",0.195 µg/mL
same,Stability of Cannabinoids in AB Red,"[1]; 8° C., 19 days",0.199 µg/mL
same,Stability of Cannabinoids in AB Red,"[1]; 8° C., 22 days",0.200 µg/mL
same,Stability of Cannabinoids in AB Red,"[1]; 8° C., 23 days",0.194 µg/mL
same,Stability of Cannabinoids in AB Red,"[1]; 8° C., 24 days",0.197 µg/mL
same,Stability of Cannabinoids in AB Red,"[1]; 8° C., 25 days",0.199 µg/mL
same,Stability of Cannabinoids in AB Red,"[1]; 8° C., 26 days",0.199 µg/mL
same,Stability of Cannabinoids in AB Red,"[1]; 8° C., 29 days",0.197 µg/mL
same,Stability of Cannabinoids in AB Red,"[1]; 8° C., 30 days",0.200 µg/mL
same,Stability of Cannabinoids in AB Red,"[1]; 8° C., 60 days",0.199 µg/mL
same,Stability of Cannabinoids in AB Red,"[1]; 8° C., 90 days",0.196 µg/mL
same,Stability of Cannabinoids in AB Red,"[1]; 8° C., 120 days",0.193 µg/mL
same,Stability of Cannabinoids in AB Red,"[1]; 8° C., 150 days",0.198 µg/mL
same,Stability of Cannabinoids in AB Red,"[1]; 8° C., 180 days",0.192 µg/mL
same,Stability of Cannabinoids in AB Red,"[1]; 8° C., 210 days",0.193 µg/mL
same,Stability of Cannabinoids in AB Red,"[1]; 8° C., 240 days",0.192 µg/mL
same,Stability of Cannabinoids in AB Red,"[1]; 8° C., 270 days",0.195 µg/mL
same,Stability of Cannabinoids in AB Red,"[1]; 8° C., 300 days",0.193 µg/mL
same,Stability of Cannabinoids in AB Red,"[1]; 8° C., 330 days",0.191 µg/mL
same,Stability of Cannabinoids in AB Red,"[1]; 8° C., 390 days",0.194 µg/mL
same,Stability of Cannabinoids in AB Red,"[1]; 8° C., 420 days",0.193 µg/mL
same,Stability of Cannabinoids in AB Red,"[1]; 8° C., 450 days",0.195 µg/mL
same,Stability of Cannabinoids in AB Red,"[1]; 8° C., 480 days",0.190 µg/mL
same,Stability of Cannabinoids in AB Red,"[1]; 8° C., 510 days",0.184 µg/mL
same,Stability of Cannabinoids in AB Red,"[1]; 8° C., 540 days",0.185 µg/mL
same,Stability of Cannabinoids in AB Red,"[1]; 8° C., 570 days",0.183 µg/mL
same,Stability of Cannabinoids in AB Red,"[1]; 21-25° C., 0 days",0.20 µg/mL
same,Stability of Cannabinoids in AB Red,"[1]; 21-25° C., 1 days",0.20 µg/mL
same,Stability of Cannabinoids in AB Red,"[1]; 21-25° C., 2 days",0.20 µg/mL
same,Stability of Cannabinoids in AB Red,"[1]; 21-25° C., 3 days",0.20 µg/mL
same,Stability of Cannabinoids in AB Red,"[1]; 21-25° C., 5 days",0.19 µg/mL
same,Stability of Cannabinoids in AB Red,"[1]; 21-25° C., 8 days",0.20 µg/mL
same,Stability of Cannabinoids in AB Red,"[1]; 21-25° C., 9 days",0.20 µg/mL
same,Stability of Cannabinoids in AB Red,"[1]; 21-25° C., 10 days",0.20 µg/mL
same,Stability of Cannabinoids in AB Red,"[1]; 21-25° C., 11 days",0.20 µg/mL
same,Stability of Cannabinoids in AB Red,"[1]; 21-25° C., 12 days",0.20 µg/mL
same,Stability of Cannabinoids in AB Red,"[1]; 21-25° C., 15 days",0.20 µg/mL
same,Stability of Cannabinoids in AB Red,"[1]; 21-25° C., 16 days",0.19 µg/mL
same,Stability of Cannabinoids in AB Red,"[1]; 21-25° C., 17 days",0.20 µg/mL
same,Stability of Cannabinoids in AB Red,"[1]; 21-25° C., 18 days",0.20 µg/mL
same,Stability of Cannabinoids in AB Red,"[1]; 21-25° C., 19 days",0.19 µg/mL
same,Stability of Cannabinoids in AB Red,"[1]; 21-25° C., 22 days",0.20 µg/mL
same,Stability of Cannabinoids in AB Red,"[1]; 21-25° C., 23 days",0.19 µg/mL
same,Stability of Cannabinoids in AB Red,"[1]; 21-25° C., 24 days",0.19 µg/mL
same,Stability of Cannabinoids in AB Red,"[1]; 21-25° C., 25 days",0.19 µg/mL
same,Stability of Cannabinoids in AB Red,"[1]; 21-25° C., 26 days",0.19 µg/mL
same,Stability of Cannabinoids in AB Red,"[1]; 21-25° C., 29 days",0.19 µg/mL
same,Stability of Cannabinoids in AB Red,"[1]; 21-25° C., 30 days",0.20 µg/mL
same,Stability of Cannabinoids in AB Red,"[1]; 21-25° C., 60 days",0.20 µg/mL
same,Stability of Cannabinoids in AB Red,"[1]; 21-25° C., 90 days",0.19 µg/mL
same,Stability of Cannabinoids in AB Red,"[1]; 21-25° C., 120 days",0.19 µg/mL
same,Stability of Cannabinoids in AB Red,"[1]; 21-25° C., 150 days",0.20 µg/mL
same,Stability of Cannabinoids in AB Red,"[1]; 21-25° C., 180 days",0.20 µg/mL
same,Stability of Cannabinoids in AB Red,"[1]; 21-25° C., 210 days",0.19 µg/mL
same,Stability of Cannabinoids in AB Red,"[1]; 21-25° C., 240 days",0.20 µg/mL
same,Stability of Cannabinoids in AB Red,"[1]; 21-25° C., 270 days",0.20 µg/mL
same,Stability of Cannabinoids in AB Red,"[1]; 21-25° C., 300 days",0.19 µg/mL
same,Stability of Cannabinoids in AB Red,"[1]; 21-25° C., 330 days",0.19 µg/mL
same,Stability of Cannabinoids in AB Red,"[1]; 21-25° C., 390 days",0.19 µg/mL
same,Stability of Cannabinoids in AB Red,"[1]; 21-25° C., 420 days",0.19 µg/mL
same,Stability of Cannabinoids in AB Red,"[1]; 21-25° C., 450 days",0.19 µg/mL
same,Stability of Cannabinoids in AB Red,"[1]; 21-25° C., 480 days",0.19 µg/mL
same,Stability of Cannabinoids in AB Red,"[1]; 21-25° C., 510 days",0.19 µg/mL
same,Stability of Cannabinoids in AB Red,"[1]; 21-25° C., 540 days",0.19 µg/mL
same,Stability of Cannabinoids in AB Red,"[1]; 21-25° C., 570 days",0.18 µg/mL
same,Stability in Powder Concentrate (content by LCMSMS),[2]; day 0,0.050 mg/g powder
same,Stability in Powder Concentrate (content by LCMSMS),[2]; day 1,0.051 mg/g powder
same,Stability in Powder Concentrate (content by LCMSMS),[2]; day 2,0.051 mg/g powder
same,Stability in Powder Concentrate (content by LCMSMS),[2]; day 3,0.048 mg/g powder
same,Stability in Powder Concentrate (content by LCMSMS),[2]; day 5,0.050 mg/g powder
same,Stability in Powder Concentrate (content by LCMSMS),[2]; day 8,0.051 mg/g powder
same,Stability in Powder Concentrate (content by LCMSMS),[2]; day 9,0.049 mg/g powder
same,Stability in Powder Concentrate (content by LCMSMS),[2]; day 10,0.050 mg/g powder
same,Stability in Powder Concentrate (content by LCMSMS),[2]; day 11,0.051 mg/g powder
same,Stability in Powder Concentrate (content by LCMSMS),[2]; day 12,0.051 mg/g powder
same,Stability in Powder Concentrate (content by LCMSMS),[2]; day 15,0.050 mg/g powder
same,Stability in Powder Concentrate (content by LCMSMS),[2]; day 16,0.049 mg/g powder
same,Stability in Powder Concentrate (content by LCMSMS),[2]; day 17,0.051 mg/g powder
same,Stability in Powder Concentrate (content by LCMSMS),[2]; day 18,0.051 mg/g powder
same,Stability in Powder Concentrate (content by LCMSMS),[2]; day 19,0.048 mg/g powder
same,Stability in Powder Concentrate (content by LCMSMS),[2]; day 22,0.049 mg/g powder
same,Stability in Powder Concentrate (content by LCMSMS),[2]; day 23,0.050 mg/g powder
same,Stability in Powder Concentrate (content by LCMSMS),[2]; day 24,0.051 mg/g powder
same,Stability in Powder Concentrate (content by LCMSMS),[2]; day 25,0.052 mg/g powder
same,Stability in Powder Concentrate (content by LCMSMS),[2]; day 26,0.050 mg/g powder
same,Stability in Powder Concentrate (content by LCMSMS),[2]; day 29,0.049 mg/g powder
same,Stability in Powder Concentrate (content by LCMSMS),[2]; day 30,0.051 mg/g powder
same,Stability in Powder Concentrate (content by LCMSMS),[2]; day 60,0.050 mg/g powder
same,Stability in Powder Concentrate (content by LCMSMS),[2]; day 90,0.050 mg/g powder
same,Stability in Powder Concentrate (content by LCMSMS),[2]; day 120,0.050 mg/g powder
same,Stability in Powder Concentrate (content by LCMSMS),[2]; day 150,0.051 mg/g powder
same,Stability in Powder Concentrate (content by LCMSMS),[2]; day 180,0.050 mg/g powder
same,Stability in Powder Concentrate (content by LCMSMS),[2]; day 210,0.049 mg/g powder
same,Stability in Powder Concentrate (content by LCMSMS),[2]; day 240,0.052 mg/g powder
same,Stability in Powder Concentrate (content by LCMSMS),[2]; day 270,0.051 mg/g powder
same,Stability in Powder Concentrate (content by LCMSMS),[2]; day 300,0.049 mg/g powder
same,Stability in Powder Concentrate (content by LCMSMS),[2]; day 330,0.052 mg/g powder
same,Stability in Powder Concentrate (content by LCMSMS),[2]; day 360,0.050 mg/g powder
same,Stability in Powder Concentrate (content by LCMSMS),[2]; day 390,0.049 mg/g powder
same,Stability in Powder Concentrate (content by LCMSMS),[2]; day 420,0.051 mg/g powder
same,Stability in Powder Concentrate (content by LCMSMS),[2]; day 450,0.049 mg/g powder
same,Stability in Powder Concentrate (content by LCMSMS),[2]; day 480,0.051 mg/g powder
same,Stability in Powder Concentrate (content by LCMSMS),[2]; day 510,0.049 mg/g powder
same,Stability in Powder Concentrate (content by LCMSMS),[2]; day 540,0.052 mg/g powder
same,Stability in Powder Concentrate (content by LCMSMS),[2]; day 570,0.048 mg/g powder
